In PubChem BioAssay AID1963963 (Molecular Pharmacology Branch, DTP, NCI, 2024):

Test system: 958667-338-R-J2-PDC tumor spheroids viability
Assay: Anticancer human tumor 958667-338-R-J2-PDC patient-derived colon adenocarcinoma cell line growth inhibition [PI3K]
Conditions: spheroids with HUVEC and MSC; for viability, T/C: stronger effect = lower value
Outline: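 Stroma-containing spheroids: tumor line, pooled-donor HUVEC, hMSC. Treatments: targeted agents with PI3K inhibitors. Dosing: clinically relevant, half-log spacing, 10 microM ceiling without known Cmax. Read-out: cell viability.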

[1] = curve of first compound, second compound 0.00316 µM
[2] = curve of first compound, second compound 0.01 µM
[3] = curve of first compound, second compound 0.0316 µM
[4] = curve of first compound, second compound 0.1 µM
[5] = curve of first compound, second compound 0.316 µM
[6] = curve of first compound, second compound 1 µM
[7] = second compound 0.00316 µM, first compound 0.0316 µM
[8] = second compound 0.00316 µM, first compound 0.1 µM
[9] = second compound 0.00316 µM, first compound 0.316 µM
[10] = second compound 0.00316 µM, first compound 1 µM
[11] = second compound 0.00316 µM, first compound 3.16 µM
[12] = second compound 0.00316 µM, first compound 10 µM
[13] = second compound 0.01 µM, first compound 0.0316 µM
[14] = second compound 0.01 µM, first compound 0.1 µM
[15] = second compound 0.01 µM, first compound 0.316 µM
[16] = second compound 0.01 µM, first compound 1 µM
[17] = second compound 0.01 µM, first compound 3.16 µM
[18] = second compound 0.01 µM, first compound 10 µM
[19] = second compound 0.0316 µM, first compound 0.0316 µM
[20] = second compound 0.0316 µM, first compound 0.1 µM
[21] = second compound 0.0316 µM, first compound 0.316 µM
[22] = second compound 0.0316 µM, first compound 1 µM
[23] = second compound 0.0316 µM, first compound 3.16 µM
[24] = second compound 0.0316 µM, first compound 10 µM
[25] = second compound 0.1 µM, first compound 0.0316 µM
[26] = second compound 0.1 µM, first compound 0.1 µM
[27] = second compound 0.1 µM, first compound 0.316 µM
[28] = second compound 0.1 µM, first compound 1 µM
[29] = second compound 0.1 µM, first compound 3.16 µM
[30] = second compound 0.1 µM, first compound 10 µM
[31] = second compound 0.316 µM, first compound 0.0316 µM
[32] = second compound 0.316 µM, first compound 0.1 µM
[33] = second compound 0.316 µM, first compound 0.316 µM
[34] = second compound 0.316 µM, first compound 1 µM
[35] = second compound 0.316 µM, first compound 3.16 µM
[36] = second compound 0.316 µM, first compound 10 µM
[37] = second compound 1 µM, first compound 0.0316 µM
[38] = second compound 1 µM, first compound 0.1 µM
[39] = second compound 1 µM, first compound 0.316 µM
[40] = second compound 1 µM, first compound 1 µM
[41] = second compound 1 µM, first compound 3.16 µM
[42] = second compound 1 µM, first compound 10 µM
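Note: spheroids exposed to compounds for seven days before readout.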

`CC1(C)CCC(Nc2ncc(C(F)(F)F)c(-c3c[nH]c4c(P(C)(C)=O)c(C#N)ccc34)n2)CN1` (centres undefined) + CC(Nc1ccc2c(c1)OCCn1cc(N3C(=O)OCC3C(F)F)nc1-2)C(N)=O showed an IC50 [1] of 4.62 µM, an IC50 [2] of 2.8 µM and an IC50 [3] of 2.55 µM. It also gave an IC50 [4] of 4.67 µM, an IC50 [5] of 1.68 µM and an IC50 [6] of 1.64 µM. It also gave a viability, T/C [7] of 108%, a viability, T/C [8] of 85.9% and a viability, T/C [9] of 79.7%. It also gave a viability, T/C [10] of 75.2%, a viability, T/C [11] of 67.8% and a viability, T/C [12] of 29.5%. The viability, T/C [13] was 135%, the viability, T/C [14] was 109% and the viability, T/C [15] was 76.9%. The viability, T/C [16] was 63.2%, the viability, T/C [17] was 67.6% and the viability, T/C [18] was 20.1%. The viability, T/C [19] was 111%, the viability, T/C [20] was 108% and the viability, T/C [21] was 58.2%. For the same compound, the viability, T/C [22] was 60.7%, the viability, T/C [23] was 64.6% and the viability, T/C [24] was 25.7%. It also gave a viability, T/C [25] of 95.2%, a viability, T/C [26] of 78.6% and a viability, T/C [27] of 71.5%. The viability, T/C [28] was 75.8%, the viability, T/C [29] was 66.8% and the viability, T/C [30] was 24.3%. It also gave a viability, T/C [31] of 78.7%, a viability, T/C [32] of 78.7% and a viability, T/C [33] of 53.1%. The viability, T/C [34] was 54%, the viability, T/C [35] was 55.9% and the viability, T/C [36] was 26.2%. It also gave a viability, T/C [37] of 86.9%, a viability, T/C [38] of 66.8% and a viability, T/C [39] of 67.2%. It also gave a viability, T/C [40] of 52.8%, a viability, T/C [41] of 50.8% and a viability, T/C [42] of 14.3%.

In the case of `C=CC(=O)N1CCN(c2nc(=O)n(-c3c(C)ccnc3C(C)C)c3nc(-c4c(O)cccc4F)c(F)cc23)C(C)C1` (centres undefined) + Cc1nc(NC(=O)N2CCCC2C(N)=O)sc1-c1ccnc(C(C)(C)C(F)(F)F)c1, the IC50 [3] is reported as > 10 µM, the IC50 [4] is reported as > 10 µM and the IC50 [5] is reported as > 10 µM. For the same compound, the IC50 [6] was > 10 µM, the IC50 (curve of first compound, second compound 3.16 µM) was > 10 µM and the IC50 (curve of first compound, second compound 10 µM) was > 10 µM. It also gave a viability, T/C [19] of 94.5%, a viability, T/C [20] of 100% and a viability, T/C [21] of 96.8%. It also gave a viability, T/C [22] of 114%, a viability, T/C [23] of 126% and a viability, T/C [24] of 112%. The viability, T/C [25] was 94.8%, the viability, T/C [26] was 111% and the viability, T/C [27] was 96.6%. It also gave a viability, T/C [28] of 110%, a viability, T/C [29] of 129% and a viability, T/C [30] of 107%. The viability, T/C [31] was 97.9%, the viability, T/C [32] was 86.9% and the viability, T/C [33] was 94.7%. It also gave a viability, T/C [34] of 113%, a viability, T/C [35] of 94.7% and a viability, T/C [36] of 84.7%. It also gave a viability, T/C [37] of 94%, a viability, T/C [38] of 76.7% and a viability, T/C [39] of 107%. For the same compound, the viability, T/C [40] was 83%, the viability, T/C [41] was 88.5% and the viability, T/C [42] was 85.2%. For the same compound, the viability, T/C (second compound 3.16 µM, first compound 0.0316 µM) was 80.4%, the viability, T/C (second compound 3.16 µM, first compound 0.1 µM) was 73.5% and the viability, T/C (second compound 3.16 µM, first compound 0.316 µM) was 68.6%. For the same compound, the viability, T/C (second compound 3.16 µM, first compound 1 µM) was 73.3%, the viability, T/C (second compound 3.16 µM, first compound 3.16 µM) was 93.5% and the viability, T/C (second compound 3.16 µM, first compound 10 µM) was 82.2%. The viability, T/C (second compound 10 µM, first compound 0.0316 µM) was 69.1%, the viability, T/C (second compound 10 µM, first compound 0.1 µM) was 60.5% and the viability, T/C (second compound 10 µM, first compound 0.316 µM) was 48.8%. The viability, T/C (second compound 10 µM, first compound 1 µM) was 63.5%, the viability, T/C (second compound 10 µM, first compound 3.16 µM) was 65.8% and the viability, T/C (second compound 10 µM, first compound 10 µM) was 68.9%.

In the case of `C=CC(=O)N1CCN(c2nc(=O)n(-c3c(C)ccnc3C(C)C)c3nc(-c4c(O)cccc4F)c(F)cc23)C(C)C1` (centres undefined) + CC(Nc1ccc2c(c1)OCCn1cc(N3C(=O)OCC3C(F)F)nc1-2)C(N)=O, the IC50 [1] is reported as > 10 µM, the IC50 [2] is reported as > 10 µM and the IC50 [3] is reported as > 10 µM. The IC50 [4] was > 10 µM, the IC50 [5] was > 10 µM and the IC50 [6] was > 10 µM. For the same compound, the viability, T/C [7] was 85.9%, the viability, T/C [8] was 112% and the viability, T/C [9] was 82.4%. It also gave a viability, T/C [10] of 112%, a viability, T/C [11] of 101% and a viability, T/C [12] of 111%. For the same compound, the viability, T/C [13] was 88.2%, the viability, T/C [14] was 100% and the viability, T/C [15] was 101%. The viability, T/C [16] was 102%, the viability, T/C [17] was 115% and the viability, T/C [18] was 94.5%. For the same compound, the viability, T/C [19] was 87.3%, the viability, T/C [20] was 96.4% and the viability, T/C [21] was 88%. For the same compound, the viability, T/C [22] was 87.3%, the viability, T/C [23] was 89.7% and the viability, T/C [24] was 98.3%. It also gave a viability, T/C [25] of 80.5%, a viability, T/C [26] of 88.8% and a viability, T/C [27] of 101%. It also gave a viability, T/C [28] of 86.3%, a viability, T/C [29] of 96.7% and a viability, T/C [30] of 99.3%. For the same compound, the viability, T/C [31] was 58.2%, the viability, T/C [32] was 62.7% and the viability, T/C [33] was 65.2%. It also gave a viability, T/C [34] of 75.2%, a viability, T/C [35] of 72.4% and a viability, T/C [36] of 70.7%. For the same compound, the viability, T/C [37] was 57.2%, the viability, T/C [38] was 55.2% and the viability, T/C [39] was 75.1%. The viability, T/C [40] was 62.2%, the viability, T/C [41] was 61.3% and the viability, T/C [42] was 60.4%.

With `C#Cc1c(F)ccc2cc(O)cc(-c3ncc4c(N5CC6CCC(C5)N6)nc(OCC56CCCN5CC(F)C6)nc4c3F)c12` (centres undefined) the viability, T/C (compound 0.0316 µM) was 98.5% [middle of 4 runs], the viability, T/C (compound 0.1 µM) was 103% [middle of 4 runs] and the viability, T/C (compound 0.316 µM) was 101% [middle of 4 runs]. For the same compound, the viability, T/C (compound 1 µM) was 97.3% [middle of 4 runs], the viability, T/C (compound 3.16 µM) was 86.7% [middle of 4 runs] and the viability, T/C (compound 10 µM) was 63.8% [middle of 4 runs]. The IC50 (curve of compound) was > 10 µM.

For `C[C@@H](NC(=O)c1ncnc(N)c1Cl)c1ncc(C(=O)Nc2cc(C(F)(F)F)c(Cl)cn2)s1`, the viability, T/C (compound 0.0316 µM) was 104% [middle of 4 runs], the viability, T/C (compound 0.1 µM) was 103% [middle of 4 runs] and the viability, T/C (compound 0.316 µM) was 106% [middle of 4 runs]. For the same compound, the viability, T/C (compound 3.16 µM) was 95.3% [middle of 4 runs], the viability, T/C (compound 10 µM) was 98.6% [middle of 4 runs] and the IC50 (curve of compound) was > 10 µM.
